In patent US5948662A, “Bacillus-derived transglutaminase” (Ajinomoto Co., Inc., priority 1995, dated 1999):
Like-named read-outs stand apart in the source and are kept apart here.

What was measured:
[1] = test system: Bacillus subtilis-derived TG reported by Ramanujam et al.; conditions: cited from earlier work
[2] = target: T1, Bacillus subtilis AJ1307-derived TG (TG-1) (Bacillus subtilis, UniProt P40746, D22N); assay type: biochemical; conditions: for Influence of reagent on TG activity (in words): TG-1, summary of Table 1; for Remaining Activity (relative value): pH 7.5, 37° C.
T1 construct: The thus-obtained cells were used as the starting material, from which TG was purified in the manner mentioned below; endogenous in cells; host or cells: Bacillus subtilis AJ1307 (enzyme solubilized from spores and purified to a single band)
T1 sequence (P40746 whole entry D22N): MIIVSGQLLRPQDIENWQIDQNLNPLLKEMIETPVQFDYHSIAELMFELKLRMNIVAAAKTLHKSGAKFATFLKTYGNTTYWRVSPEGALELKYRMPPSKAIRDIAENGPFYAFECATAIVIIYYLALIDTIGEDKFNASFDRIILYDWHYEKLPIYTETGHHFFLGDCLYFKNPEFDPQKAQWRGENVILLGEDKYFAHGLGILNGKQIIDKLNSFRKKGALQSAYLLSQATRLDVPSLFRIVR
Method: The TG activity of the enzyme liquids obtained below was determined according to an enzymatic activity measuring method, which is as follows. […] The thus-counted value was referred to as the TG activity of the enzyme liquid.
Effects, if any, of various reagents on the TG activity were checked. The reagents tested herein were N-ethylmaleimide (NEM), cystamine, phenylmethanesulfonyl fluoride (PMSF), ammonium sulfate, sodium sulfate, EDTA, EGTA, calcium chloride, dithiothreitol (DTT) and 2-mercaptoethanol (2-ME). All were bought from Nacalai Tesque, Inc.
As the enzyme source, the previously-prepared pure TG fraction was used at a concentration of 2 μg/ml. The protein concentration was measured, using a protein assay kit (produced by Bio Rad Co.).
To measure the TG activity, the above-mentioned method of using ^1 4C-labeled putrescine and dimethylcasein as the substrates (at pH of 7.5 and at 37° C.) was employed. As the enzyme source, the previously-prepared pure TG fraction was used at a concentration of 2 μg/ml. The reaction was conducted at 37° C. for 30 minutes.
The TG activity was measured in the following manner. The above-mentioned pure TG fraction was mixed with each one of the reagents that had been adjusted to have a suitable concentration and then left on ice for 30 minutes. The solution of the enzyme source thus reacted with each reagent was adjusted to have a TG concentration of 2 μg/ml and then reacted with the substrates, whereupon the TG activity still remained in the resulting reaction system was measured (at pH of 7.5 and at 37° C.).

[3] = target: T2, Bacillus subtilis AJ12866-derived TG (TG-2) (Bacillus subtilis, UniProt P40746); test: Influence of reagents on TG activity (TG active fraction after gel permeation, TG-2); conditions: for Remaining Activity (relative value): control = 100
T2 sequence (P40746 1-245): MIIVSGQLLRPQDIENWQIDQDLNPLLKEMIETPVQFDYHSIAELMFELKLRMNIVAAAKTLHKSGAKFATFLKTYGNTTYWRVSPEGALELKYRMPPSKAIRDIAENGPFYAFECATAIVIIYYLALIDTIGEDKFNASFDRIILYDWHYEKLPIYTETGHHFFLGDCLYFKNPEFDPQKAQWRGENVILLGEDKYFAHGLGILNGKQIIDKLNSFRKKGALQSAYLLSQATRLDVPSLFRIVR
Method: The method for measuring the enzymatic activity as employed herein was as follows. 50 μl of a reaction system (100 mM Tris-HCl, pH 7.5, 6.3 mg/ml dimethylcasein, 10 nM ^14 C-putrescine, 1.2 μCi) containing 10 μl of the enzyme sample to be measured was kept at 37° C. for 30 minutes thereby to make the substrates reacted. After the reaction, 40 μl of the reaction mixture was adsorbed onto filter paper. In the reaction mixture, the putrescine was reacted with the dimethylcasein due to the catalysis of the TG therein. A bonded reaction product of the putrescine and the dimethylcasein was adsorbed on the filter paper. By adding 10% TCA thereto, the bonded reaction product was fixed on the filter paper. Then, the filter paper was washed three times with a 5% TCA solution, and the ^1 4C radioactivity as fixed to the filter paper was counted with a liquid scintillation counter. The value thus measured corresponds to the relative TG activity of the enzyme sample.
The cells of Bacillus subtilis AJ12866 strain were suspended in a reaction system (0.5 mg/ml lysozyme, 20 μg/ml DNase I, 0.1 M Tris-HCl (pH 7.5), 2 mM DTT, 1 mM EDTA, 2 mM PMSF) and reacted on ice for 2 hours whereby the cells were lysed. The resulting reaction mixture was centrifuged at 20,000×g for 20 minutes, and the precipitate fraction thus obtained was suspended in a washing system (0.1 M Tris-HCl (pH 7.5), 1 mM EDTA, 2 mM PMSF). The resulting suspension was centrifuged, and the precipitate was collected. This operation was repeated for a total of two times.
The thus-obtained precipitate fraction was suspended in a buffer (0.1 M sodium carbonate (pH 10), 1 mM EDTA, 2 mM PMSF) and left at 37° C. for 30 minutes. Meanwhile, a part of the substances that had existed in the precipitate fraction were dissolved in the buffer and the TG activity was transferred to the soluble fraction. […] The pH of the supernatant was adjusted to 6.0 by adding acetic acid thereto. This is referred to as a crude enzyme liquid. The crude enzyme liquid was concentrated by ultrafiltration and then dialyzed against a buffer (50 mM Tris-HCl (pH 7.5), 0.1 M NaCl), whereby the buffer was exchanged. The resulting crude enzyme liquid was subjected to gel permeation, and the TG active fraction thus eluted was collected. The enzymatic properties of the fraction were measured.

[4] = agent concentration 10 (unit not given), control = 100
[5] = agent concentration 5 (unit not given), control = 100

## O[C@H](CS)[C@H](O)CS (racemic) [DTT, dithiothreitol]
[1]
  Influence of reagent on the activity of the reported TG (in words): inhibited
[2]
  Influence of reagent on TG activity (in words): not inhibited
[2]; [4]
  Remaining Activity (relative value): 119
[3]; 1 mM of DTT
  Increase of TG activity in the presence of DTT: ≥ 1.5 times
[3]; TG-2, Ca^2+ at 5 mM or more
  Influence of reagent on TG activity (in words): not inhibited

## OCCS [2-ME, 2-mercaptoethanol]
[2]
  Influence of reagent on TG activity (in words): not inhibited
[2]; [4]
  Remaining Activity (relative value): 111
[3]; agent concentration 10 mM
  Remaining Activity (relative value): 122

## N.N.O=S(=O)(O)O [(NH4)2 SO4, ammonium sulfate]
[2]
  Influence of reagent on TG activity (in words): inhibited
[2]; [4]
  Remaining Activity (relative value): 1
[3]; TG-2, Ca^2+ at 5 mM or more
  Influence of reagent on TG activity (in words): greatly inhibited
[3]; agent concentration 10 mM
  Remaining Activity (relative value): 3

## [Ca+2].[Cl-].[Cl-] [CaCl2, calcium chloride]
[1]; Ca^2+ of 5 mM or more
  Influence of Ca^2+ on the reported TG (in words): inhibited
[2]; Ca2+ of not less than 5 mM
  TG activity maintained in the presence of Ca2+: not less than 50%
[2]; [5]
  Remaining Activity (relative value): 65
[3]; TG-2, Ca^2+ at 5 mM or more
  Influence of reagent on TG activity (in words): not inhibited

## O=C(O)CN(CCN(CC(=O)O)CC(=O)O)CC(=O)O [EDTA, ethylenediamine-tetraacetic acid]
[2]
  Influence of reagent on TG activity (in words): not inhibited
[2]; [4]
  Remaining Activity (relative value): 107
[3]
  Influence of reagent on TG activity (in words): almost no influence

## O=C(O)CN(CCOCCOCCN(CC(=O)O)CC(=O)O)CC(=O)O [EGTA]
[1]
  Influence of reagent on the activity of the reported TG (in words): greatly inhibited
[2]
  Influence of reagent on TG activity (in words): not inhibited
[2]; [4]
  Remaining Activity (relative value): 98
[3]; agent concentration 10 mM
  Remaining Activity (relative value): 94

## CCN1C(=O)C=CC1=O [NEM, N-ethylmaleimide]
[2]
  Influence of reagent on TG activity (in words): inhibited
[2]; agent concentration 1 (unit not given), TG not reacted with reagent = 100, 30 min on ice with reagent
  Remaining Activity (relative value): 17
[3]; TG-2, Ca^2+ at 5 mM or more
  Influence of reagent on TG activity (in words): greatly inhibited

## O=S(=O)([O-])[O-].[Na+].[Na+] [Na2 SO4, sodium sulfate]
[2]
  Influence of reagent on TG activity (in words): not inhibited
[2]; [4]
  Remaining Activity (relative value): 87
[3]; agent concentration 10 mM
  Remaining Activity (relative value): 85

## O=S(=O)(F)Cc1ccccc1 [PMSF, phenylmethanesulfonyl fluoride]
[2]; [5]
  Remaining Activity (relative value): 89
[3]; agent concentration 5 mM
  Remaining Activity (relative value): 95

## NCCSSCCN [cystamine]
[2]
  Influence of reagent on TG activity (in words): inhibited
[2]; agent concentration 2 (unit not given), control = 100
  Remaining Activity (relative value): 0
[3]; TG-2, Ca^2+ at 5 mM or more
  Influence of reagent on TG activity (in words): greatly inhibited
